This is an account of results in ChEMBL document CHEMBL1250493, “Interaction of daunomycin with acetylated chromatin” (J Med Chem, 2010).

Test [1] is filed under the species Gallus gallus. Description: Binding affinity to histone H1 depleted chromatin in chicken erythroleukemic cells mononucleosomes transformed with Marek's virus by Scatchard plot analysis.
The species named for test [2] is Gallus gallus. Kind of test: Binding affinity to histone H1 containing chromatin in chicken erythroleukemic cells mononucleosomes transformed with Marek's virus by Scatchard plot analysis.

`COc1cccc2c1C(=O)c1c(O)c3c(c(O)c1C2=O)C[C@@](O)(C(C)=O)C[C@@H]3O[C@H]1C[C@H](N)[C@H](O)[C@H](C)O1`: the K in test [1] was found to be 6.4 ×10⁴ /M; in test [2] it was 4.6 ×10⁴ /M.
